{"source": "paper PMC6738096", "about": "(British Journal of Cancer, 2019)", "origin": "cited, not measured here", "key": {"[1]": {"conditions": "cited from earlier work"}, "ALK-positive NSCLC": {"system": "ALK-positive NSCLC", "parameters": "method as in not given", "conditions": "ALK pre-treated setting, post crizotinib; ref not given; cited from earlier work"}}}
{"smiles": "COc1cc(N2CCC(N3CCN(C)CC3)CC2)ccc1Nc1ncc(Cl)c(Nc2ccccc2P(C)(C)=O)n1", "note": "[brigatinib]", "values": [{"measurement": "QTc prolongation in clinical trials", "setting": "[1]", "value": "QTc was not prolonged to any clinically relevant extent"}, {"measurement": "Objective response rate", "setting": "ALK-positive NSCLC", "value": "45–54%"}]}
{"smiles": "Cc1cc(Nc2ncc(Cl)c(Nc3ccccc3S(=O)(=O)C(C)C)n2)c(OC(C)C)cc1C1CCNCC1", "note": "[ceritinib]", "values": [{"measurement": "Patients with QTc > 500 ms", "setting": "[1]; among 919 patients", "value": 1.3, "unit": "%"}, {"measurement": "Patients with ΔQTc of > 60 ms", "setting": "[1]; among 919 patients", "value": 6, "unit": "%"}, {"measurement": "Objective response rate", "setting": "ALK-positive NSCLC", "value": 55, "unit": "%"}]}
{"smiles": "C[C@H]1Oc2cc(cnc2N)-c2c(nn(C)c2C#N)CN(C)C(=O)c2ccc(F)cc21", "note": "[lorlatinib]", "values": [{"measurement": "Objective response rate", "setting": "ALK-positive NSCLC", "value": 48, "unit": "%"}]}
